Test results as given in ChEMBL document CHEMBL5465560, “Selectivity Literature for EUbOPEN Chemogenomic Library” (2024).

Key:
[1] = target: Wee1-like protein kinase 2 (Homo sapiens) (UniProt P0C1S8); experiment: Selectivity interaction (KinomeScan (DiscoverX)) EUB0000666a WEE2; settings: at 10 µM
[2] = target: T1, Inhibitor of nuclear factor kappa-B kinase subunit beta (Homo sapiens) (UniProt O14920); experiment: Selectivity interaction (KinomeScan (DiscoverX)) EUB0000607a IKBKB; settings: at 10 µM
T1 sequence (whole entry): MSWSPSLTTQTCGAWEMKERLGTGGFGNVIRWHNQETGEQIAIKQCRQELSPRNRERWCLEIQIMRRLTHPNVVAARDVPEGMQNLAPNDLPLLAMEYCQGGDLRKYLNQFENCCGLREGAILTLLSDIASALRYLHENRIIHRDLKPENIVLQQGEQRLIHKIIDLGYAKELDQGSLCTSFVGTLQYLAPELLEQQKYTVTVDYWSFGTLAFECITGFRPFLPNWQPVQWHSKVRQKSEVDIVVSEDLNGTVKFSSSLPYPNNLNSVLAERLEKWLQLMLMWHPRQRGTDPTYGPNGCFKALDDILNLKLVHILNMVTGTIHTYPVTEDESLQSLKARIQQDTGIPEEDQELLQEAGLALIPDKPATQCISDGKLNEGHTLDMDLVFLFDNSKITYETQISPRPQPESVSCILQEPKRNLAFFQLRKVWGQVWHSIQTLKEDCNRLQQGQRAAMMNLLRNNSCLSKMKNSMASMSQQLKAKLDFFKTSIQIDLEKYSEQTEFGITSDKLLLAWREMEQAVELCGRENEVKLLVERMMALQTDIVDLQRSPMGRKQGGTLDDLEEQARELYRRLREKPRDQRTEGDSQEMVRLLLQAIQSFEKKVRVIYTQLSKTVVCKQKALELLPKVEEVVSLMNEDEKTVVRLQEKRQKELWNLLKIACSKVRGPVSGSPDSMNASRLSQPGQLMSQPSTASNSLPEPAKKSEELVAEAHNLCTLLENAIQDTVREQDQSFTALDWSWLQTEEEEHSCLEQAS

[3] = target: T2, 5-hydroxytryptamine receptor 2C (Homo sapiens) (UniProt P28335); experiment: Selectivity interaction (Panel of kinases, GPCRs, ion channels and transporters (enzymatic assay)) EUB0000266bCl HTR2C
T2 sequence (whole entry): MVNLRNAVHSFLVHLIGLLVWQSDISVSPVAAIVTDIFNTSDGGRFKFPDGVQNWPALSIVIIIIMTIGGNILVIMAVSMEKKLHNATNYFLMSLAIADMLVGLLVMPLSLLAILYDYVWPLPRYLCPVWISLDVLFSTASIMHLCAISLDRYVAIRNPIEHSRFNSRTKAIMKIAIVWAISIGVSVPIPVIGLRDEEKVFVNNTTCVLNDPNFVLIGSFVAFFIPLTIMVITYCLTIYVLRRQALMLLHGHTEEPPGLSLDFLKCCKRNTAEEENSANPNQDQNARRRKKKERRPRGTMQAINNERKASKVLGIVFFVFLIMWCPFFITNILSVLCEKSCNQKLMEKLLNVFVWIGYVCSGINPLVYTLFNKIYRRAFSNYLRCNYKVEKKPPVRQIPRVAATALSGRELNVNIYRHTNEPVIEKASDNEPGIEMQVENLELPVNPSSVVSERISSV

[4] = target: T3, Histone-arginine methyltransferase CARM1 (Homo sapiens, UniProt Q86X55); experiment: Selectivity interaction (Western Blot (dimethylation of BAF155 (BAF155me2a/BAF155) in KMS-27 cells)) EUB0000255b CARM1; assay type: cell-based
T3 sequence (Q86X55 whole entry): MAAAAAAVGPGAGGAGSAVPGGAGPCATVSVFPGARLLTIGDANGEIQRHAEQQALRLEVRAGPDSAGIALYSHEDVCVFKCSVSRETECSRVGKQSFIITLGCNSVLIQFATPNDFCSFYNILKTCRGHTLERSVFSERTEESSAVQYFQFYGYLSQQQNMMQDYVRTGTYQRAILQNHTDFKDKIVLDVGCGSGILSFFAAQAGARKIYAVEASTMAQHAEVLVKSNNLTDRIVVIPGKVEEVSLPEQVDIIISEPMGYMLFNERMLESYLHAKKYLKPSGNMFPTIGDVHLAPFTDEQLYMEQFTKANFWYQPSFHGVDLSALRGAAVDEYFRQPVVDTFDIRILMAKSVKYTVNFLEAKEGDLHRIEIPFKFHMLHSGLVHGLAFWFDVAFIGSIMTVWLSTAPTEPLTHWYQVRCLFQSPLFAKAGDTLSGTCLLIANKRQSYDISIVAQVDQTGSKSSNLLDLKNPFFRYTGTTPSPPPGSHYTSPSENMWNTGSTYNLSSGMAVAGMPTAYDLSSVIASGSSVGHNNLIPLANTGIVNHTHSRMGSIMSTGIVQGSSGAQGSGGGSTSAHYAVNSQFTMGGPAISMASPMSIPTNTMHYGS

[5] = target: T4, Phosphatidylinositol 5-phosphate 4-kinase type-2 gamma (Homo sapiens) (UniProt Q8TBX8); experiment: Selectivity interaction (KinomeScan (DiscoverX)) EUB0000695a PIP4K2C; settings: at 100 nM
T4 sequence (whole entry): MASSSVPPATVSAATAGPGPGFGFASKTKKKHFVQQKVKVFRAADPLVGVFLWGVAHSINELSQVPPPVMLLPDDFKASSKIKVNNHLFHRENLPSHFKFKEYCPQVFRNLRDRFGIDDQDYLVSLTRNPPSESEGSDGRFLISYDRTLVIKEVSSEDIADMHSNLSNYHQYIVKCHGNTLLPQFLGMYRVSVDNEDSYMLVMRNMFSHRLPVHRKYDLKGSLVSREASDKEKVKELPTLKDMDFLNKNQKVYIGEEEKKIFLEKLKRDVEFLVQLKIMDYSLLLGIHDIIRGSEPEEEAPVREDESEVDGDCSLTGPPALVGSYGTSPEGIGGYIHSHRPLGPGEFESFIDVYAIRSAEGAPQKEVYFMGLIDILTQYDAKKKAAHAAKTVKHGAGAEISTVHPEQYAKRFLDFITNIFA

[6] = target: Serine/threonine-protein kinase N1 (Homo sapiens, UniProt Q16512); experiment: Selectivity interaction (KinomeScan (DiscoverX)) EUB0001049a PKN1; settings: at 1 µM
[7] = target: Dual specificity protein kinase CLK1 (Homo sapiens, UniProt P49759); experiment: Selectivity interaction (KinomeScan (DiscoverX)) EUB0001049a CLK1; settings: at 1 µM
Chain of Dual specificity protein kinase CLK1 (P49759 whole entry, looked up): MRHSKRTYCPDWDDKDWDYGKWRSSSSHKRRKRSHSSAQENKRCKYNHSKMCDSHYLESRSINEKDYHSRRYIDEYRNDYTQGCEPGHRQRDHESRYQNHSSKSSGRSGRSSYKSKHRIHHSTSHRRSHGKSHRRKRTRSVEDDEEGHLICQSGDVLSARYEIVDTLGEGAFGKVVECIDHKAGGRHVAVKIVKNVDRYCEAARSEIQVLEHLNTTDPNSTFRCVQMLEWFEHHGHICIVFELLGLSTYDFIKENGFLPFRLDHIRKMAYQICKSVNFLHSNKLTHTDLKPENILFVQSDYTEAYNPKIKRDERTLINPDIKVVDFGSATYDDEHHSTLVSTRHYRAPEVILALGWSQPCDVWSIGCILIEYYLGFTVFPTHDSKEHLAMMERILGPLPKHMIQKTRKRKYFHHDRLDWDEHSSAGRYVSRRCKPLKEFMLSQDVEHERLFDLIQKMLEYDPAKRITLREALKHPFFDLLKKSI

Chain of Serine/threonine-protein kinase N1 (Q16512 2-942 limits assumed): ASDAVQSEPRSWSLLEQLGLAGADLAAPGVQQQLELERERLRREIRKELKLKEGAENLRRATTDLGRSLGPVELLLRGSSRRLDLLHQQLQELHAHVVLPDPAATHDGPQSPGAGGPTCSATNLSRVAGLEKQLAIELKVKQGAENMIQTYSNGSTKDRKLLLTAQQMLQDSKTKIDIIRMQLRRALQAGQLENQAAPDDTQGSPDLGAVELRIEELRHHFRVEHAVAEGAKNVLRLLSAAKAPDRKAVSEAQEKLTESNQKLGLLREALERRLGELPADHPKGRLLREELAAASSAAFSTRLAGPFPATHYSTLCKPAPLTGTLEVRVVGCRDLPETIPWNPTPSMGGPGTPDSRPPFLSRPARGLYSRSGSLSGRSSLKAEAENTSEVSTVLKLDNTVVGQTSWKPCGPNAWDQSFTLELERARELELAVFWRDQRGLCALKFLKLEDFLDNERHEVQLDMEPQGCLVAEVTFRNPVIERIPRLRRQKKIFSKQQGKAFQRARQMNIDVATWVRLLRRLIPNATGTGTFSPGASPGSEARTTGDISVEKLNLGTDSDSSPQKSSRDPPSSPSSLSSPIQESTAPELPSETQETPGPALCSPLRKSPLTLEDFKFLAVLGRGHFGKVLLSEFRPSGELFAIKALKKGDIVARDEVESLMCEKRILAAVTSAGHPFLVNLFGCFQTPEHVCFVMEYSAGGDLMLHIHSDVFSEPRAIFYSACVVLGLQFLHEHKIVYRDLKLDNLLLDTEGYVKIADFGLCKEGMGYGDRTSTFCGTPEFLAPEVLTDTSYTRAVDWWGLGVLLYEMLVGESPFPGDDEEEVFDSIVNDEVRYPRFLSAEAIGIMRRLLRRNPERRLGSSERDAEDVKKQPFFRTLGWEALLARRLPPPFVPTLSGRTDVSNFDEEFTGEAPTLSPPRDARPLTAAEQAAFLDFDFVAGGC
Chain of Wee1-like protein kinase 2 (Homo sapiens) (P0C1S8 whole entry, looked up): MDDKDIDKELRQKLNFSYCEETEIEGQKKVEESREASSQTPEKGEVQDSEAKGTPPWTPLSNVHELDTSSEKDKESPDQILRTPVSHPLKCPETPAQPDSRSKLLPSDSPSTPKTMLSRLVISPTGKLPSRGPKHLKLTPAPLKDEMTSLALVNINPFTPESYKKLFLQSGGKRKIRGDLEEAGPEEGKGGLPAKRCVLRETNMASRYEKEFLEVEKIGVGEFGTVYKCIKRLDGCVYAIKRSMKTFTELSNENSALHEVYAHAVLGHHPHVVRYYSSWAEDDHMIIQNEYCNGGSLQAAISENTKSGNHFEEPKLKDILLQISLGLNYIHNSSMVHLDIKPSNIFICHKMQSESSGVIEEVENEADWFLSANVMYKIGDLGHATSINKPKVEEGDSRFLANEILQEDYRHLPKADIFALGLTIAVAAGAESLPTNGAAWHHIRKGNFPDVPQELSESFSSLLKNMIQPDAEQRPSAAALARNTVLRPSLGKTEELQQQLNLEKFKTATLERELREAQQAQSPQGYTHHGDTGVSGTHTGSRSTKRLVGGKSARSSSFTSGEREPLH

O=C(NOC[C@H](O)CO)c1ccc(F)c(F)c1Nc1ccc(I)cc1F
% of control [1]: 77%

CNC(=O)Nc1ccc(-c2nc(N3CC4CCC(C3)O4)c3cnn(C4CCC5(CC4)OCCO5)c3n2)cc1
% of control [2]: 79%

CCn1c(-c2nc3cc(C(=O)N4CCCC(N)C4)ccc3n2C)cc2ccccc21 (configuration not stated)
pXC50 [3]: < 4.4 M

COCCN1CCC(c2cc(CN(C)C(=O)c3cccc(Oc4ccccc4)c3)ccn2)CC1
IC50 [4]: > 3 nM

Cc1cc(F)c(C(=O)Nc2cccc(-c3nncn3C(C)C)n2)cc1-n1cnc(C2CC2)c1
% of control [5]: 100%

COc1cc(Nc2nc(C)cc(-c3cnn4nc(OC)ccc34)n2)cc(C(F)(F)F)c1
% of control [6]: 94%
% of control [7]: 100%
